Experimental data reported in patent US12043612B2, “Methods of manufacturing a bifunctional compound, ultrapure forms of the bifunctional compound, and dosage forms comprising the same” (Arvinas Operations, Inc., priority 2020, dated 2024).
≈ marks a conversion by molar mass, not a printed value. Like-named read-outs stand apart in the source and are kept apart here.

What was measured:
[1] = Rat pharmacokinetic studies with solutions and spray-dried dispersions; conditions: rats; solutions containing solubilizers and precipitation inhibitors
[2] = Solubility of Compound A in solvents at 24° C. ± 3° C., 24 h; assay type: physicochemical; conditions: organic solvent or mixture, thermodynamic from solid
Description: This batch was prepared for use in the 28-day good laboratory practice (GLP) toxicology studies using the same synthetic scheme and processing employed in preparation of active pharmaceutical ingredient (API) to be used in the clinical drug product.

BCS designation = conditions: low solubility, low permeability
[3] = Solubility in pH 6.5 simulated intestinal fluid (SIF); assay type: physicochemical
[4] = Membrane flux experiment (donor/receiver compartments, SIF bile salts)
Description: A membrane flux experiment was conducted in which a fixed amount of compound was introduced into the donor compartment at various concentrations of the SIF bile salts, and appearance of drug was monitored on the receiver side.

[5] = Oral bioavailability and hepatic clearance with colloid-forming, precipitation-resistant solutions; assay type: in vivo

Compound: N#Cc1ccc(O[C@H]2CC[C@H](NC(=O)c3ccc(N4CCC(CN5CCN(c6cc7c(cc6F)C(=O)N(C6CCC(=O)NC6=O)C7=O)CC5)CC4)nn3)CC2)cc1Cl (stereo partly drawn) [Compound A, N-[(1r,4r)-4-(3-chloro-4-cyanophenoxy)cyclohexyl]-6-[4-({4-[2-(2,6-dioxopiperidin-3-yl)-6-fluoro-1,3-dioxo-2,3-dihydro-1H-isoindol-5-yl]piperazin-1-yl}methyl)piperidin-1-yl]pyridazine-3-carboxamide]
- exposure versus dose [1]: Dose-linear exposure escalation
- solubility at 24 h ([2]; Acetonitrile, read-out: Solubility, Conc. (mg/mL), 24 h): 0.79 mg/mL (≈ 973 µM)
- solubility at 24 h ([2]; Dichloromethane, read-out: Solubility, Conc. (mg/mL), 24 h): 25.1 mg/mL (≈ 30900 µM)
- solubility at 24 h ([2]; Dichloromethane/methanol, read-out: Solubility, Conc. (mg/mL), 24 h): 100 mg/mL (≈ 123000 µM)
- solubility at 24 h ([2]; Ethanol, read-out: Solubility, Conc. (mg/mL), 24 h): 0.08 mg/mL (≈ 98.5 µM)
- solubility at 24 h ([2]; Ethyl acetate, read-out: Solubility, Conc. (mg/mL), 24 h): 0.2 mg/mL (≈ 246 µM)
- solubility at 24 h ([2]; Methanol, read-out: Solubility, Conc. (mg/mL), 24 h): 0.29 mg/mL (≈ 357 µM)
- solubility at 24 h ([2]; Polyethylene glycol-300, read-out: Solubility, Conc. (mg/mL), 24 h): 2.8 mg/mL (≈ 3450 µM)
- solubility at 24 h ([2]; Propylene glycol, read-out: Solubility, Conc. (mg/mL), 24 h): 0.75 mg/mL (≈ 923 µM)
- BCS designation (BCS designation): BCS IV
- solubility ([3]; fassif, thermodynamic from solid, pH 6.5 simulated intestinal fluid (SIF), read-out: crystalline solid's solubility): 1.2 µg/mL (≈ 1.48 µM)
- solubility ([3]; pH 6.5, fassif, read-out: amorphous solubility in SIF): 30 µg/mL (≈ 36.9 µM)
- Flux (μg-min^−1-cm^−2) ([4]; SIF 0 mg/mL): 0.02 μg-min^−1-cm^−2
- Flux (μg-min^−1-cm^−2) ([4]; SIF 5 mg/mL): 0.09 μg-min^−1-cm^−2
- Flux (μg-min^−1-cm^−2) ([4]; SIF 10 mg/mL): 0.14 μg-min^−1-cm^−2
- Flux (μg-min^−1-cm^−2) ([4]; SIF 20 mg/mL): 0.20 μg-min^−1-cm^−2
- oral bioavailability ([5]; colloid-forming, precipitation-resistant solutions administered): modest
- hepatic clearance ([5]; in vivo): low
